Experimental data: ChEMBL document CHEMBL4130359, “Indazole-based ligands for estrogen-related receptor α as potential anti-diabetic agents” (Eur J Med Chem, 2017)

Key:
Rattus norvegicus [1] = assay: Antidiabetic activity in Zucker rat sub-chronic fa/fa prediabetic model assessed as increase in serum adiponectin level administered orally once daily for 4 days by ELISA; type: functional, organism-based
Rattus norvegicus [2] = assay: Toxicity in […] chronic ob/ob model assessed as serum creatinine level at 50 mg/kg, po qd for 31 days measured on day 32 (reference value: 0.55 +/- 0.018 mg/dl); type: organism-based; conditions: in vivo, 744 h
Rattus norvegicus [3] = type: functional, Zucker
Rattus norvegicus [4] = assay: Toxicity in Zucker rat sub-chronic fa/fa prediabetic model assessed as liver weight at 3 mg/kg, po qd for 31 days measured on day 32 (reference value: 28 +/- 1.6 g); type: organism-based; conditions: in vivo, 744 h
Rattus norvegicus [5] = assay: Effect on SYNJ2 gene expression in epididymal white adipose tissue of Zucker rat sub-chronic fa/fa prediabetic model at 10 mg/kg, po qd for 15 days by microarray analysis relative to control; type: functional
[6] = AUC (0 to 24 hrs) in ob/ob mouse at 18 mg/kg administered via oral gavage by LC-MS analysis; type: ADME, organism-based; design: dose 18 mg/kg, time < 24 hr, route oral; conditions: in vivo
[7] = Volume of distribution at steady state in Sprague-Dawley rat at 2 mg/kg, iv by LC-MS analysis; type: ADME, organism-based; conditions: in vivo, read-out: Vdss
Cavia porcellus = species: Cavia porcellus; assay: Inhibition of veratridine binding to Dunkin Hartley guinea pig atria sodium channel site 2 (unknown origin) at 10 uM relative to control
Rattus norvegicus [8] = assay: Toxicity in […] model assessed as serum ALT level at 50 mg/kg, po qd for 31 days measured on day 32 (reference value: 127 +/- 9 U/L); type: organism-based; conditions: in vivo, 744 h
Rattus norvegicus [9] = assay: Toxicity in […] model assessed as serum AST level at 50 mg/kg, po qd for 31 days measured on day 32 (reference value: 180 +/- 26 U/L); type: organism-based; conditions: in vivo, 744 h
[10] = biological target: Peroxisome proliferator-activated receptor delta (Homo sapiens, UniProt Q03181); assay: Antagonist activity at recombinant GST-tagged human PPARdelta LBD assessed as inhibition of GW0742-induced fluorescein-labeled coactivator peptide recruitment preincubated with enzyme followed by coactivator addition by LanthaScreen TR-FRET assay
Rattus norvegicus [11] = assay: Toxicity in […] chronic ob/ob model assessed as change in body weight at 50 mg/kg, po qd for 28 days measured on day 1 to 28 during compound dosing (reference value: 9.9 +/- 1.27 g); type: organism-based; conditions: in vivo, 672 h
[12] = Cmax in […] chronic ob/ob model at 50 mg/kg, po qd for 28 days measured on day 28 post last dose; type: ADME, organism-based; design: dose 50 mg/kg, route oral; conditions: in vivo
Rattus norvegicus [13] = assay: Effect on PIK3CD gene expression in epididymal white adipose tissue of Zucker rat sub-chronic fa/fa prediabetic model at 10 mg/kg, po qd for 15 days by microarray analysis relative to control; type: functional
[14] = Tmax in ob/ob mouse at 18 mg/kg administered via oral gavage by LC-MS analysis; type: ADME, organism-based; conditions: in vivo
Rattus norvegicus [15] = assay: Toxicity in Zucker rat sub-chronic fa/fa prediabetic model assessed as serum cholesterol level at 1 mg/kg, po qd for 31 days measured on day 32 (reference value: 295 +/- 91 mg/dl); type: organism-based; conditions: in vivo, 744 h
Rattus norvegicus [16] = assay: Toxicity in […] chronic ob/ob model assessed as serum triglyceride level at 50 mg/kg, po qd for 31 days measured on day 32 (reference value: 329 +/- 36 mg/dl); type: organism-based; conditions: in vivo, 744 h
Rattus norvegicus [17] = assay: Toxicity in Zucker rat sub-chronic fa/fa prediabetic model assessed as serum triglyceride level at 1 mg/kg, po qd for 31 days measured on day 32 (reference value: 1382 +/- 268 mg/dl); type: organism-based; conditions: in vivo, 744 h
Rattus norvegicus [18] = assay: Toxicity in Zucker rat sub-chronic fa/fa prediabetic model assessed as liver weight at 1 mg/kg, po qd for 31 days measured on day 32 (reference value: 28 +/- 1.6 g); type: organism-based; conditions: in vivo, 744 h
Rattus norvegicus [19] = assay: Antidiabetic activity in Zucker rat sub-chronic fa/fa prediabetic model assessed as serum adiponectin level at 3 mg/kg, po qd for 4 days by ELISA (reference value: 9.1%); type: functional
Rattus norvegicus [20] = assay: Effect on ECSIT gene expression in epididymal white adipose tissue of Zucker rat sub-chronic fa/fa prediabetic model at 10 mg/kg, po qd for 15 days by microarray analysis relative to control; type: functional
[21] = biological target: Retinoic acid receptor RXR-alpha (Homo sapiens, UniProt P19793); assay: Agonist activity at recombinant GST-tagged human RXRalpha LBD assessed as fluorescein-labeled coactivator peptide recruitment preincubated with enzyme followed by coactivator addition by LanthaScreen TR-FRET assay
[22] = Cmax in Zucker rat sub-chronic fa/fa prediabetic model at 10 mg/kg, po qd for 26 days measured on day 26 post last dose; type: ADME, organism-based; design: dose 10 mg/kg, route oral; conditions: in vivo
Rattus norvegicus [23] = assay: Effect on IGFBP4 gene expression in epididymal white adipose tissue of Zucker rat sub-chronic fa/fa prediabetic model at 10 mg/kg, po qd for 15 days by microarray analysis relative to control; type: functional
Rattus norvegicus [24] = assay: Effect on PRKD3 gene expression in epididymal white adipose tissue of Zucker rat sub-chronic fa/fa prediabetic model at 10 mg/kg, po qd for 15 days by microarray analysis relative to control; type: functional
Rattus norvegicus [25] = assay: Effect on TNFRSF1B gene expression in epididymal white adipose tissue of Zucker rat sub-chronic fa/fa prediabetic model at 10 mg/kg, po qd for 15 days by microarray analysis relative to control; type: functional
Rattus norvegicus [26] = assay: Effect on HLA-DRB1 gene expression in epididymal white adipose tissue of Zucker rat sub-chronic fa/fa prediabetic model at 10 mg/kg, po qd for 15 days by microarray analysis relative to control; type: functional
Rattus norvegicus [27] = assay: Effect on RRAS2 gene expression in epididymal white adipose tissue of Zucker rat sub-chronic fa/fa prediabetic model at 10 mg/kg, po qd for 15 days by microarray analysis relative to control; type: functional
Rattus norvegicus [28] = assay: Effect on COX4I1 gene expression in epididymal white adipose tissue of Zucker rat sub-chronic fa/fa prediabetic model at 10 mg/kg, po qd for 15 days by microarray analysis relative to control; type: functional
Rattus norvegicus [29] = assay: Toxicity in […] chronic ob/ob model assessed as brown adipose tissue weight at 10 mg/kg, po qd for 31 days measured on day 32 (reference value: 0.59 +/- 0.05 g); type: organism-based; conditions: in vivo, 744 h
Rattus norvegicus [30] = assay: Toxicity in […] model assessed as serum ALT level at 3 mg/kg, po qd for 31 days measured on day 32 (reference value: 127 +/- 9 U/L); type: organism-based; conditions: in vivo, 744 h
Rattus norvegicus [31] = assay: Effect on IGFBP6 gene expression in epididymal white adipose tissue of Zucker rat sub-chronic fa/fa prediabetic model at 10 mg/kg, po qd for 15 days by microarray analysis relative to control; type: functional
Rattus norvegicus [32] = assay: Effect on IL1RN gene expression in epididymal white adipose tissue of Zucker rat sub-chronic fa/fa prediabetic model at 10 mg/kg, po qd for 15 days by microarray analysis relative to control; type: functional
Rattus norvegicus [33] = assay: Effect on ACOX1 gene expression in epididymal white adipose tissue of Zucker rat sub-chronic fa/fa prediabetic model at 10 mg/kg, po qd for 15 days by microarray analysis relative to control; type: functional

Sequence of Peroxisome proliferator-activated receptor delta (Q03181 whole entry, the tested form may be a part): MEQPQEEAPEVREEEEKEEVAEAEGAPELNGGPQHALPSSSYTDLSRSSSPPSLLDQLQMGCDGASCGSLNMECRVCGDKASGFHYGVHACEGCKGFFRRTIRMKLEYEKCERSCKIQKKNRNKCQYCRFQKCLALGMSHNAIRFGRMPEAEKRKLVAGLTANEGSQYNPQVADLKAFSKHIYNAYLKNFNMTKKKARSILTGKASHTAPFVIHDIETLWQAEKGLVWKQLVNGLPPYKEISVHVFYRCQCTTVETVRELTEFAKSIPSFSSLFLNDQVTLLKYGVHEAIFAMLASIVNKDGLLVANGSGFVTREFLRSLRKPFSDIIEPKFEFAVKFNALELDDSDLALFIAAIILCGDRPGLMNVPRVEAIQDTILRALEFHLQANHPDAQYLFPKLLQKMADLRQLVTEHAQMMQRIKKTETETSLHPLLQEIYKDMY
Sequence of Retinoic acid receptor RXR-alpha (P19793 whole entry, the tested form may be a part): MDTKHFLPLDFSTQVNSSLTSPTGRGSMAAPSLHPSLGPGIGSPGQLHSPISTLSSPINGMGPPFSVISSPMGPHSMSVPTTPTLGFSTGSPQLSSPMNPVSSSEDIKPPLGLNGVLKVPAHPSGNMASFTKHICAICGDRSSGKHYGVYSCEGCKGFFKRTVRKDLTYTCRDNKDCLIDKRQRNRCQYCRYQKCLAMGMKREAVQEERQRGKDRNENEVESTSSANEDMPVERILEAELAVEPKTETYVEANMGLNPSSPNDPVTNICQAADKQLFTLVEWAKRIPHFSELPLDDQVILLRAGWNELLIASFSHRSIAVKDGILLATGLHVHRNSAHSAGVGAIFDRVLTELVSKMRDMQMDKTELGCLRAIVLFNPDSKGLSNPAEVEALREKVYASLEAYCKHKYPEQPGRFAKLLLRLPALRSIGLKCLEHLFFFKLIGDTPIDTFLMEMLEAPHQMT

In the case of `CN1CC[C@@H](N2C(=O)S/C(=C\c3ccc4c(cnn4Cc4ccc(Cl)cc4C(F)(F)F)c3)C2=O)[C@H](F)C1`, the Activity (Rattus norvegicus [1]) is reported as “Dose-dependent effect”, the Activity (Rattus norvegicus [2]) is reported as 0.43 mg/dL and the Activity (Rattus norvegicus [3]) is reported as 331.3 mg/dL. For the same compound, the Activity (Rattus norvegicus [4]) was 20.6 g, the “fold change (FC)” value (Rattus norvegicus [5]) was -1.663 and the AUC(0-t) at 24 h [6] was 6230 ng·h/mL. The Vd [7] was 11.2 L/kg, the inhibition (Cavia porcellus) was 69% and the Activity (Rattus norvegicus [8]) was 149 U/L. For the same compound, the Activity (Rattus norvegicus [9]) was 199 U/L, the IC50 [10] was > 10 µM and the Activity (Rattus norvegicus [11]) was 9.4 g. The Cmax [12] was 1680 ng/mL, the “fold change (FC)” value (Rattus norvegicus [13]) was -1.312 and the Tmax [14] was 2 h. For the same compound, the Activity (Rattus norvegicus [15]) was 328 mg/dL, the Activity (Rattus norvegicus [16]) was 81 mg/dL and the Activity (Rattus norvegicus [17]) was 1040 mg/dL. The Activity (Rattus norvegicus [18]) was 21.9 g, the Activity (Rattus norvegicus [19]) was 11.1% and the “fold change (FC)” value (Rattus norvegicus [20]) was 1.339. For the same compound, the EC50 [21] was > 10 µM, the Cmax [22] was 2900 ng/mL and the “fold change (FC)” value (Rattus norvegicus [23]) was -1.825. The “fold change (FC)” value (Rattus norvegicus [24]) was -1.247, the “fold change (FC)” value (Rattus norvegicus [25]) was -1.505 and the “fold change (FC)” value (Rattus norvegicus [26]) was -1.334. The “fold change (FC)” value (Rattus norvegicus [27]) was 1.235, the “fold change (FC)” value (Rattus norvegicus [28]) was 1.323 and the Activity (Rattus norvegicus [29]) was 0.99 g. The Activity (Rattus norvegicus [30]) was 172 U/L, the “fold change (FC)” value (Rattus norvegicus [31]) was -1.269 and the “fold change (FC)” value (Rattus norvegicus [32]) was -1.209. The “fold change (FC)” value (Rattus norvegicus [33]) was 1.495.
